How the values were obtained:
Kv1.3 potassium channel = biological target: T1, Kv1.3 potassium channel (Homo sapiens, UniProt P22001); assay: Kv1.3 potassium channel blocker activity, automated whole-cell patch clamp (Patchliner); format: cell-based; conditions: CHO-K1 cells stably expressing Kv1.3; whole-cell current, Hill fit
T1 construct: expressed in transfected cells
Procedure: Example 9. Evaluation of Kv1.3 Potassium Channel Blocker Activities
This assay is used to evaluate the disclosed compounds' activities as Kv1.3 potassium channel blockers.
CHO-K1 cells stably expressing Kv1.3 were grown in DMEM containing 10% heat-inactivated FBS, 1 mM Sodium Pyruvate, 2 mM L-Glutamine and G418 (500 μg/ml). Cells were grown in culture flasks at 37° C. in a […] incubator.
(§1) The cells were bathed in an extracellular solution containing 140 mM NaCl, 4 mM KCl, 2 mM CaCl2, 1 mM MgCl2, 5 mM Glucose, 10 mM HEPES; pH adjusted to 7.4 with NaOH; 295-305 mOsm. The internal solution contained 50 mM KCl, 10 mM NaCl, 60 mM KF, 20 mM EGTA, 10 mM HEPES; pH adjusted to 7.2 with KOH; 285 mOsm. All compounds were dissolved in DMSO at 30 mM. Compound stock solutions were freshly diluted with external solution to concentrations of 30 nM, 100 nM, 300 nM, 1 μM, 3 μM, 10 μM, 30 μM and 100 μM. The highest content of DMSO (0.3%) was present in 100 μM.
The currents were evoked by applying 100 ms depolarizing pulses from −90 mV (holding potential) to +40 mV were applied with 0.1 Hz frequency. Control (compound-free) and compound pulse trains for each compound concentration applied contained 20 pulses. 10-second breaks were used between pulse trains (see Table A below).
Whole-cell current recordings and compound application were enabled by means of an automated patch clamp platform Patchliner (Nanion Technologies GmbH). EPC 10 patch clamp amplifier (HEKA Elektronik Dr. Schulze GmbH) along with Patchmaster software (HEKA Elektronik Dr. Schulze GmbH) was used for data acquisition. Data were sampled at 10 kHz without filtering. Passive leak currents were subtracted online using a P/4 procedure (HEKA Elektronik Dr. Schulze GmbH). Increasing compound concentrations were applied consecutively to the same cell without washouts in between. Total compound incubation time before the next pulse train was not longer than 10 seconds. Peak current inhibition was observed during compound equilibration.
(§2) AUC and peak values were obtained with Patchmaster (HEKA Elektronik Dr. Schulze GmbH). To determine IC50, the last single pulse in the pulse train corresponding to a given compound concentration was used. Obtained AUC and peak values in the presence of compound were normalized to control values in the absence of compound. Using Origin (OridinLab), IC50 was derived from data fit to Hill equation: Icompound/Icontrol=(100−A)/(1+([compound]/IC50)nH)+A, where IC50 value is the concentration at which current inhibition is half-maximal, [compound] is the applied compound concentration, A is the fraction of current that is not blocked and nH is the Hill coefficient.

hERG channel = biological target: T2, hERG channel (Homo sapiens, UniProt Q12809); assay: hERG electrophysiology, automated whole-cell patch clamp (Patchliner); format: cell-based; conditions: CHO-K1 cells stably expressing hERG; whole-cell current, Hill fit
T2 construct: expressed in transfected cells
T2 sequence (Q12809 whole entry): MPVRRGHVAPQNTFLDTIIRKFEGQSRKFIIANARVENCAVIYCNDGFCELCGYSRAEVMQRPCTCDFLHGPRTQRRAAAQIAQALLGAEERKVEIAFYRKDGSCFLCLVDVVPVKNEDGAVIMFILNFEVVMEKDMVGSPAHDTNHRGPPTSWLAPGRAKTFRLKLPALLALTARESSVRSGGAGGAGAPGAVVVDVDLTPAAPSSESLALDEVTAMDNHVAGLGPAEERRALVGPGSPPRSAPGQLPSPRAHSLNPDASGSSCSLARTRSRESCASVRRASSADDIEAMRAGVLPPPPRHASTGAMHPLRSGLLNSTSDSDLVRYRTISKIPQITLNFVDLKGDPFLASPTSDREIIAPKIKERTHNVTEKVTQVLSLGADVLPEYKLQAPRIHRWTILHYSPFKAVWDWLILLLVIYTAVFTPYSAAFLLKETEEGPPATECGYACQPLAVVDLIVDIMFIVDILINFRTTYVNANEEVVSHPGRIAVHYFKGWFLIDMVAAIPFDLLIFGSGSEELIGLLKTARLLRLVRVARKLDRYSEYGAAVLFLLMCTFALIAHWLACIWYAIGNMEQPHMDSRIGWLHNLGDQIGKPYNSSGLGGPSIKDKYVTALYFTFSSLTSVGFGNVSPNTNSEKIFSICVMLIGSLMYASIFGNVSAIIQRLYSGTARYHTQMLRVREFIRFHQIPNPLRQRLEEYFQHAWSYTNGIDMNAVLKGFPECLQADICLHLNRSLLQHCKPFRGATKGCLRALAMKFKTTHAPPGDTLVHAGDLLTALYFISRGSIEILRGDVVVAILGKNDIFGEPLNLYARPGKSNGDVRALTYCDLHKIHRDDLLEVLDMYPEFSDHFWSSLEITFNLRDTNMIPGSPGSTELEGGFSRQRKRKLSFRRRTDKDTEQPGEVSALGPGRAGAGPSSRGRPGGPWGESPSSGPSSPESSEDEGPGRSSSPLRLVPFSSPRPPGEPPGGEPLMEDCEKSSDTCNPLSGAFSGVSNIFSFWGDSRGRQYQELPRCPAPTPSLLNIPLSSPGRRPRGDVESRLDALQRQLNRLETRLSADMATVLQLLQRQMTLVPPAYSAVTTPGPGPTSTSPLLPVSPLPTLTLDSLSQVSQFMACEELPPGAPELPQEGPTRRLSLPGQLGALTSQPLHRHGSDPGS
Procedure: Example 10. Evaluation of hERG Activities
This assay is used to evaluate the disclosed compounds' inhibition activities against the hERG channel.
CHO-K1 cells stably expressing hERG were grown in Ham's F-12 Medium with Glutamine containing 10% heat-inactivated FBS, 1% Penicillin/Streptomycin, Hygromycin (100 μg/ml) and G418 (100 μg/ml). Cells were grown in culture flasks at 37° C. in a 5% CO2-humidified incubator.
as §1, with “CaCl2),” for “CaCl2,”
The voltage protocol (see Table B) was designed to simulate voltage changes during a cardiac action potential with a 300 ms depolarization to +20 mV (analogous to the plateau phase of the cardiac action potential), a repolarization for 300 ms to −50 mV (inducing a tail current) and a final step to the holding potential of −80 mV. The pulse frequency was 0.3 Hz. Control (compound-free) and compound pulse trains for each compound concentration applied contained 70 pulses.
Whole-cell current recordings and compound application were enabled by means of an automated patch clamp platform Patchliner (Nanion). EPC 10 patch clamp amplifier (HEKA) along with Patchmaster software (HEKA Elektronik Dr. Schulze GmbH) was used for data acquisition. Data were sampled at 10 kHz without filtering. Increasing compound concentrations were applied consecutively to the same cell without washouts in between.
as §2, with “PEAK” for “peak”, “IC50” for “IC50,”, “IC50” for “IC50 value”

T1 sequence (P22001 whole entry): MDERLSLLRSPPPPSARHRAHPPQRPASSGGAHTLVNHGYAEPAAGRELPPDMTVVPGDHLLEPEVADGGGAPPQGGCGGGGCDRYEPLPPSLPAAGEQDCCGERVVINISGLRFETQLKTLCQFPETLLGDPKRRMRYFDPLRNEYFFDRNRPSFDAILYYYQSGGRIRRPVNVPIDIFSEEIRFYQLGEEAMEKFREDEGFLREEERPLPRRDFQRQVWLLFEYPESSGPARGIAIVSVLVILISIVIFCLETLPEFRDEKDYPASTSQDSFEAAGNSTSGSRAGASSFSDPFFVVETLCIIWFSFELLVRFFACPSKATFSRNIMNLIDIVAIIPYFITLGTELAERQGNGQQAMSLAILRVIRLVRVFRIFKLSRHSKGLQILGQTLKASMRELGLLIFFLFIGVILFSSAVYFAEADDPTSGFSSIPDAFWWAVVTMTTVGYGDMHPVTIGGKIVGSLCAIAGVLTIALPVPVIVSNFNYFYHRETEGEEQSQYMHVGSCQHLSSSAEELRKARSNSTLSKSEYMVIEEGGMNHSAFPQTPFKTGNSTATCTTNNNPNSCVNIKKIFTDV

Row | Compound | IC50 (Kv1.3 potassium channel) | IC50 (hERG channel)
1 | O=C1NC(=O)N2CC[C@H](c3c(O)ccc(Cl)c3Cl)C[C@@H]12 (single isomer, unassigned; diastereoisomer 1) [Compound 9, 7-(2,3-dichloro-6-hydroxyphenyl)tetrahydro-imidazo[1,5-a]pyridine-1,3(2H,5H)-dione diastereoisomer 1] | < 1 µM | > 30 µM
2 | O=C1[C@@H]2C[C@H](c3c(O)ccc(Cl)c3Cl)CCN2C(=O)CN1C1CC(O)C1 (single isomer, unassigned; isomer 1) [Compound 14, 8-(2,3-dichloro-6-hydroxyphenyl)-2-[3-hydroxycyclobutyl]-hexahydropyrido[1,2-a]pyrazine-1,4-dione isomer 1] | < 1 µM | > 30 µM
3 | O=C1[C@@H]2C[C@H](c3c(O)ccc(Cl)c3Cl)CCN2C(=O)CN1C1CC(O)C1 (single isomer, unassigned; isomer 2) [Compound 44, 8-(2,3-dichloro-6-hydroxyphenyl)-2-[3-hydroxycyclobutyl]-hexahydropyrido[1,2-a]pyrazine-1,4-dione isomer 2] | < 1 µM | > 30 µM
4 | O=C1[C@@H]2C[C@H](c3c(O)ccc(Cl)c3Cl)CCN2C(=O)[C@H]2C[C@H](O)CN12 (single isomer, unassigned; isomer 2) [Compound 65, 7-(2,3-dichloro-6-hydroxyphenyl)-2-hydroxyhexahydro-1H-pyrido[1,2-a]pyrrolo[1,2-d]pyrazine-5,11(5aH,11aH)-dione isomer 2] | < 1 µM | < 30 µM
5 | O=C1[C@@H]2C[C@H](O)CN2C(=O)[C@@H]2C[C@H](c3c(O)ccc(Cl)c3Cl)CCN12 (single isomer, unassigned; isomer 4) [Compound 35, 7-(2,3-dichloro-6-hydroxyphenyl)-2-hydroxyhexahydro-1H-pyrido[1,2-a]pyrrolo[1,2-d]pyrazine-5,11(5aH,11aH)-dione isomer 4] | < 1 µM | < 30 µM
6 | O=C1[C@@H]2C[C@H](c3c(O)ccc(Cl)c3Cl)CCN2C(=O)CN1C1CNC1 [Compound 1, (8R,9aS)-2-(azetidin-3-yl)-8-(2,3-dichloro-6-hydroxyphenyl)-octahydro-1H-pyrido[1,2-a]pyrazine-1,4-dione] | < 1 µM | > 30 µM
7 | O=C1NCCC(=O)N2CCC(c3c(O)ccc(Cl)c3Cl)CC12 (centres unmarked) [Compound 8, 9-(2,3-dichloro-6-hydroxyphenyl)-decahydropyrido[1,2-a][1,4]diazepine-1,5-dione] | < 1 µM | > 30 µM
8 | O=C1[C@H]2[C@@H](O)CCN2C(=O)[C@@H]2C[C@H](c3c(O)ccc(Cl)c3Cl)CCN12 [Compound 12, (1S,5aS,7R,11aR)-7-(2,3-dichloro-6-hydroxyphenyl)-1-hydroxyhexahydro-1H-pyrido[1,2-a]pyrrolo[1,2-d]pyrazine-5,11(5aH,11aH)-dione] | < 1 µM | > 30 µM
9 | CC(C)[C@H](O)[C@H]1NC(=O)[C@@H]2C[C@H](c3c(O)ccc(Cl)c3Cl)CCN2C1=O [Compound 30, (3R,8R.9aS)-8-(2,3-dichloro-6-hydroxyphenyl)-3-[(1S)-1-hydroxy-2-methylpropyl]-hexahydro-2H-pyrido[1,2-a]pyrazine-1,4-dione] | < 1 µM | > 30 µM
10 | O=C1[C@@H]2C[C@H](c3c(O)ccc(Cl)c3Cl)CCN2C(=O)CN1C(CO)CO [Compound 32, (8R,9aS)-8-(2,3-dichloro-6-hydroxyphenyl)-2-(1,3-dihydroxypropan-2-yl)hexahydro-4H-pyrido[1,2-a]pyrazine-1,4(6H)-dione] | < 1 µM | > 30 µM
11 | O=C1NCC(=O)N2CC[C@@H](c3c(O)ccc(Cl)c3Cl)C[C@@H]12 [Compound 41, (8R,9aS)-8-(2,3-dichloro-6-hydroxyphenyl)hexahydro-4H-pyrido[1,2-a]pyrazine-1,4(6H)-dione] | < 1 µM | > 30 µM
12 | O=C1[C@@H]2C[C@H](c3cc(Cl)c(Cl)cc3O)CCN2C(=O)CN1C1CNC1 [Compound 50, (8R,9aS)-2-(azetidin-3-yl)-8-(4,5-dichloro-2-hydroxyphenyl)hexahydro-4H-pyrido[1,2-a]pyrazine-1,4(6H)-dione] | < 1 µM | > 30 µM

Now from value to molecule, other results behind:

Row | IC50 (Kv1.3 potassium channel) | Compound | IC50 (hERG channel)
13 | < 1 µM | COC[C@H]1NC(=O)[C@@H]2C[C@H](c3c(O)ccc(Cl)c3Cl)CCN2C1=O (relative stereo) [Compound 55, (8R,9aS)-rel-8-(2,3-dichloro-6-hydroxyphenyl)-3-((3R)-methoxymethyl)-hexahydro-2H-pyrido[1,2-a]pyrazine-1,4-dione] | > 30 µM
14 | < 1 µM | O=C1N[C@H](CO)C(=O)N2CC[C@@H](c3c(O)ccc(Cl)c3Cl)C[C@@H]12 [Compound 2, (3R,8R,9aS)-8-(2,3-dichloro-6-hydroxyphenyl)-3-(hydroxymethyl)-hexahydro-2H-pyrido[1,2-a]pyrazine-1,4-dione] | > 30 µM
15 | < 1 µM | C[C@H](O)[C@H]1NC(=O)[C@@H]2C[C@H](c3c(O)ccc(Cl)c3Cl)CCN2C1=O [Compound 3, (3R,8R,9aS)-8-(2,3-dichloro-6-hydroxyphenyl)-3-[(1S)-1-hydroxyethyl]-hexahydro-2H-pyrido[1,2-a]pyrazine-1,4-dione] | > 30 µM
16 | < 1 µM | CN1C(=O)[C@@H]2C[C@H](c3c(O)ccc(Cl)c3Cl)CCN2C(=O)[C@H]1CO [Compound 6, (3R,8R,9aS)-8-(2,3-dichloro-6-hydroxyphenyl)-3-(hydroxymethyl)-2-methyl-hexahydropyrido[1,2-a]pyrazine-1,4-dione] | > 30 µM
17 | < 1 µM | C[C@@H](O)[C@H]1NC(=O)[C@@H]2C[C@H](c3c(O)ccc(Cl)c3Cl)CCN2C1=O [Compound 24, (3R,8R,9aS)-8-(2,3-dichloro-6-hydroxyphenyl)-3-[(1R)-1-hydroxyethyl]-hexahydro-2H-pyrido[1,2-a]pyrazine-1,4-dione] | > 30 µM
18 | < 1 µM | O=C1[C@@H]2C[C@H](c3c(O)ccc(Cl)c3Cl)CCN2C(=O)CN1CCO [Compound 26, (8R,9aS)-8-(2,3-dichloro-6-hydroxyphenyl)-2-(2-hydroxyethyl)-hexahydropyrido[1,2-a]pyrazine-1,4-dione] | > 30 µM
19 | < 1 µM | CN1CC(=O)N2CCC(c3c(O)ccc(Cl)c3Cl)CC2C1=O (centres unmarked) [Compound 36, 8-(2,3-dichloro-6-hydroxyphenyl)-2-methyl-octahydro-1H-pyrido[1,2-a]pyrazine-1,4-dione] | > 30 µM

Source: patent US20230040182A1, “ARYL HETEROBICYCLIC COMPOUNDS AS Kv1.3 POTASSIUM SHAKER CHANNEL BLOCKERS” (priority 2019, published 2023)
